Assay results as given in US20110160059A1, “Herbicidal compositions comprising flufenacet” (Bayer CropScience AG, priority 2009, published 2011).

Experiments:
Type in all cases: in vivo
[1] = system: HORVS=Hordeum vulgare, summer barley=crop plant; assay: Greenhouse trial, selective post-emergence action on crop (test method 2)
Method: (§1) In the standard design of the test, seeds of various broad-leaved weed and weed grass biotypes (origins) were sown in a 8-13 cm diameter pot filled with natural soil of a standard field soil (loamy silt; non-sterile) and covered with a covering soil layer of about 1 cm. The pots were then cultivated in a greenhouse (12-16 h of light, temperature day 20-22° C., night 15-18° C.) until the time of application. The pots were treated on a laboratory track sprayer with spray liquors comprising the compositions according to the invention, mixtures of the prior art or components used individually. Application of the active compounds or active compound combinations formulated as WG, WP, EC or otherwise was carried out at the appropriate growth stages of the plants. The application rate for the spray application was 100-600 l of water/ha. After the treatment, the plants were returned to the greenhouses.
(§2) About 3 weeks after the application, the soil action or/and foliar action was assessed visually according to a scale of 0-100% in comparison to an untreated comparative group: 0%=no noticeable effect compared to the untreated comparative group; 100%=full effect compared to the untreated comparative group.
(notes: the term “seeds” also includes vegetative propagation forms such as, for example, rhizome pieces; abbreviations used: h light=hours of illumination, g of AS/ha=gram of active substance per hectare, l/ha=liter per hectare, S=sensitive, R=resistant) • 1. […]
(§3) Insofar as herbicidal effects of the compositions according to the invention compared to mixtures of the prior art or compared to components applied individually against economically important mono- and dicotyledonous harmful plants were the center of attention, the synergistic herbicidal activities were calculated using Colby's formula (cf. S. R. Colby; Weeds 15 (1967), 20-22): […]

[2] = system: VIOAR=Viola arvensis=weed; assay: Greenhouse trial, post-emergence action against weeds (test method 1); conditions: PO application, about 3 weeks after application
Method: as §1, §2
(§4) (notes: the term “seeds” also includes vegetative propagation forms such as, for example, rhizome pieces; abbreviations used: h light=hours of illumination, g of AS/ha=gram of active substance per hectare, l/ha=liter per hectare, S=sensitive, R=resistant) • 1. Post-emergence action against weeds: seeds of various broad-leaved weed and weed grass biotypes (origins) were sown in a 8-13 cm diameter pot filled with natural soil of a standard field soil (loamy silt; non-sterile) and covered with a covering soil layer of about 1 cm. The pots were then cultivated in a greenhouse (12-16 h of light, temperature day 20-22° C., night 15-18° C.) until the time of application. The pots were treated at various BBCH stages between 11-25 of the seeds/plants, i.e. generally between two to three weeks after the start of the cultivation, on a laboratory track sprayer with spray liquors comprising the compositions according to the invention, mixtures or components used individually, as WG, WP, EC or other formulations. The application rate for the spray application was 100-600 l of water/ha. After the treatment, the plants were returned to the greenhouses and, when required, treated with fertilizer and watered. • 2. Selective post-emergence action: seeds of various crop species (origins) were sown in a 8-13 cm diameter pot filled with natural soil of a standard field soil (loamy silt; non-sterile) and covered with a covering soil layer of about 1 cm. The pots were then cultivated in a greenhouse (12-16 h of light, temperature day 20-22° C., night 15-18° C.) until the time of application. The pots were treated at various BBCH stages between 11-32 of the seeds/plants, i.e. generally between two to four weeks after the start of the cultivation, on a laboratory track sprayer with spray liquors comprising the compositions according to the invention, mixtures or components used individually, as WG, WP, EC or other formulations. The application rate for the spray application was 100-600 l of water/ha. After the treatment, the plants were returned to the greenhouses and, when required, treated with fertilizer and watered. The pots were cultivated in a greenhouse (12-16 h light, temperature day 20-22° C., night 15-18° C.).
as §3

[3] = system: APESV=Apera spica-venti=weed; assay: as above; conditions: PO application, about 3 weeks after application
Method: as §1, §2, §4, §3

`CC(Oc1ccc(Oc2ccc(Cl)cc2Cl)cc1)C(=O)O` (racemic) [(B) diclofop, (±)-2-[4-(2,4-dichlorophenoxy)phenoxy]propanoic acid] was tested, and the “activity (crop damage) on HORVS, visual scale 0-100% vs untreated” value ([1]; PO application, 378 g of AS/ha, about 3 weeks after application, greenhouse) was 20%, the “activity on VIOAR, visual scale 0-100% vs untreated” value ([2]; 378 g of AS/ha) was 0% and the “activity on APESV, visual scale 0-100% vs untreated” value ([3]; 378 g of AS/ha) was 0%.

With `CC(C)N(C(=O)COc1nnc(C(F)(F)F)s1)c1ccc(F)cc1` [(A) flufenacet, N-(4-fluorophenyl)-N-(1-methylethyl)-2-[[5-(trifluoromethyl)-1,3,4-thiadiazol-2-yl]oxy]acetamide] the “activity (crop damage) on HORVS, visual scale 0-100% vs untreated” value ([1]; Hordeum vulgare (summer barley), in vivo, po) was 40%, the “activity on VIOAR, visual scale 0-100% vs untreated” value ([2]; 120 g of AS/ha) was 40% and the “activity on APESV, visual scale 0-100% vs untreated” value ([3]; 120 g of AS/ha) was 60%.

For `CSc1nnc(C(C)(C)C)c(=O)n1N` [(C) metribuzin, 4-amino-6-(1,1-dimethylethyl)-3-(methylthio)-1,2,4-triazin-5(4H)-one], the “activity (crop damage) on HORVS, visual scale 0-100% vs untreated” value ([1]; PO application, 140 g of AS/ha, about 3 weeks after application, greenhouse) was 70%, the “activity on VIOAR, visual scale 0-100% vs untreated” value ([2]; 140 g of AS/ha) was 90% and the “activity on APESV, visual scale 0-100% vs untreated” value ([3]; 140 g of AS/ha) was 79%.
